# Experimental data as given in patent US9695155B2, “Herbicidal substituted pyrimidinyloxy benzene compounds” (E. I. DU PONT DE NEMOURS AND COMPANY, priority 2013, dated 2017).
# What was measured:
# giant foxtail [1] = experiment: Test A preemergence; assay type: in vivo, Setaria faberii; conditions: for Foxtail, Giant plant response rating: 500 g ai/ha
# Method in brief: (§1)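 Visual injury scored 0–100 (100 = complete control) against untreated controls about 10 days after treatment in a greenhouse. Test chemicals, formulated with surfactant in non-phytotoxic solvent, were sprayed on soil preemergence or on 2-10 cm, one- to two-leaf plants postemergence.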
# wheat [2] = experiment: Test A preemergence; assay type: in vivo, Triticum aestivum; conditions: for Wheat plant response rating: 500 g ai/ha
# Method in brief: as §1
# rice = experiment: Test B flooded paddy test; assay type: in vivo, Oryza sativa; conditions: Flood, 250 g ai/ha; 0 to 100 scale where 0 is no effect and 100 is complete control
# Method in brief: (§2)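 Seedlings are raised to two leaves, flooded to a depth of 3 cm and dosed by adding the compound to the floodwater. Water level is kept constant, and plants are scored visually versus controls 13–15 days later (0 = no effect, 100 = complete control).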
# morningglory [3] = experiment: Test A preemergence; assay type: in vivo, Ipomoea spp.; conditions: for Morningglory plant response rating: 500 g ai/ha
# Method in brief: as §1
# pigweed [4] = experiment: Test A preemergence; assay type: in vivo, Amaranthus retroflexus; conditions: for Pigweed plant response rating: 500 g ai/ha
# Method in brief: as §1
# barnyardgrass [5] = experiment: Test B flooded paddy test; assay type: in vivo, Echinochloa crus-galli; conditions: Flood, 250 g ai/ha; 0 to 100 scale where 0 is no effect and 100 is complete control
# Method in brief: as §2
# pigweed [6] = experiment: Test A postemergence; assay type: in vivo, Amaranthus retroflexus
# Method in brief: as §1
# Heteranthera limosa = experiment: Test B flooded paddy test; assay type: in vivo; conditions: Flood, 250 g ai/ha; 0 to 100 scale where 0 is no effect and 100 is complete control
# Method in brief: as §2
# velvetleaf [7] = experiment: Test A postemergence; assay type: in vivo, Abutilon theophrasti
# Method in brief: as §1
# corn [8] = experiment: Test A postemergence; assay type: in vivo, Zea mays
# Method in brief: as §1
# barnyardgrass [9] = experiment: Test A postemergence; assay type: in vivo, Echinochloa crus-galli
# Method in brief: as §1
# wheat [10] = experiment: Test A postemergence; assay type: in vivo, Triticum aestivum
# Method in brief: as §1
# corn [11] = experiment: Test A preemergence; assay type: in vivo, Zea mays; conditions: for Corn plant response rating: 500 g ai/ha
# Method in brief: as §1
# velvetleaf [12] = experiment: Test A preemergence; assay type: in vivo, Abutilon theophrasti; conditions: for Velvetleaf plant response rating: 500 g ai/ha
# Method in brief: as §1
# large (Lg) crabgrass [13] = experiment: Test A postemergence; assay type: in vivo, Digitaria sanguinalis
# Method in brief: as §1
# morningglory [14] = experiment: Test A postemergence; assay type: in vivo, Ipomoea spp.
# Method in brief: as §1
# sedge, umbrella = experiment: Test B flooded paddy test; assay type: in vivo, Cyperus difformis; conditions: Flood, 250 g ai/ha; 0 to 100 scale where 0 is no effect and 100 is complete control
# Method in brief: as §2
# large (Lg) crabgrass [15] = experiment: Test A preemergence; assay type: in vivo, Digitaria sanguinalis; conditions: for Crabgrass, Large plant response rating: 500 g ai/ha
# Method in brief: as §1
# barnyardgrass [16] = experiment: Test A preemergence; assay type: in vivo, Echinochloa crus-galli; conditions: for Barnyardgrass plant response rating: 500 g ai/ha
# Method in brief: as §1
# giant foxtail [17] = experiment: Test A postemergence; assay type: in vivo, Setaria faberii
# Method in brief: as §1
# [18] = 0 to 100 scale where 0 is no effect and 100 is complete control
# [19] = 125 g ai/ha, 0 to 100 scale where 0 is no effect and 100 is complete control
# [20] = 500 g ai/ha, 0 to 100 scale where 0 is no effect and 100 is complete control
# [21] = 0 to 100 scale, 0 no effect, 100 complete control, approx. 10 days
# [22] = 500 g ai/ha, 0 to 100 scale, 0 no effect, 100 complete control
smiles,measurement,setting,value
N#Cc1cnn(-c2c(C=O)cccc2Oc2ncc(Cl)cn2)c1 [Compound 237],"Foxtail, Giant plant response rating (0 to 100 scale)",giant foxtail [1]; 125 g ai/ha,0
same,"Foxtail, Giant plant response rating",giant foxtail [1]; [18],0
same,Wheat plant response rating (0 to 100 scale),wheat [2]; 125 g ai/ha,0
same,Wheat plant response rating,wheat [2]; [18],0
same,"Plant response rating, Rice",rice,0
same,Morningglory plant response rating (0 to 100 scale),morningglory [3]; 125 g ai/ha,0
same,Morningglory plant response rating,morningglory [3]; [18],0
same,Pigweed plant response rating (0 to 100 scale),pigweed [4]; 125 g ai/ha,0
same,Pigweed plant response rating,pigweed [4]; [18],80
same,"Plant response rating, Barnyardgrass",barnyardgrass [5],0
same,Pigweed plant response rating,pigweed [6]; [19],30
same,"Plant response rating, Pigweed",pigweed [6]; [20],70
same,"Plant response rating, Ducksalad",Heteranthera limosa,0
same,Velvetleaf plant response rating,velvetleaf [7]; [19],20
same,"Plant response rating, Velvetleaf",velvetleaf [7]; [20],30
same,Corn plant response rating,corn [8]; [19],0
same,"Plant response rating, Corn",corn [8]; [20],0
same,Barnyardgrass plant response rating,barnyardgrass [9]; [19],0
same,"Plant response rating, Barnyardgrass",barnyardgrass [9]; [20],0
same,Wheat plant response rating,wheat [10]; [19],0
same,"Plant response rating, Wheat",wheat [10]; [20],0
same,Corn plant response rating (0 to 100 scale),corn [11]; 125 g ai/ha,0
same,Corn plant response rating,corn [11]; [18],0
same,Velvetleaf plant response rating (0 to 100 scale),velvetleaf [12]; 125 g ai/ha,0
same,Velvetleaf plant response rating,velvetleaf [12]; [18],10
same,"Crabgrass, Large plant response rating",large (Lg) crabgrass [13]; [19],0
same,"Plant response rating, Crabgrass, Large",large (Lg) crabgrass [13]; [20],0
same,Morningglory plant response rating,morningglory [14]; [19],0
same,"Plant response rating, Morningglory",morningglory [14]; [20],0
same,"Plant response rating, Sedge, Umbrella","sedge, umbrella",0
same,"Crabgrass, Large plant response rating (0 to 100 scale)",large (Lg) crabgrass [15]; 125 g ai/ha,0
same,"Crabgrass, Large plant response rating",large (Lg) crabgrass [15]; [18],10
same,"Barnyardgrass plant response rating (0 to 100 scale, 0 is no effect, 100 is complete control)",barnyardgrass [16]; 125 g ai/ha,0
same,Barnyardgrass plant response rating,barnyardgrass [16]; [18],10
same,"Foxtail, Giant plant response rating",giant foxtail [17]; [19],0
same,"Plant response rating, Foxtail, Giant",giant foxtail [17]; [20],0
CC(C)(C)c1ccn(-c2ccccc2Oc2ncc(Cl)cn2)n1 [Compound 29],"Plant response rating, Foxtail, Giant",giant foxtail [1]; [19],10
same,"Foxtail, Giant plant response rating",giant foxtail [1]; [21],20
same,"Plant response rating, Wheat",wheat [2]; [19],0
same,Wheat plant response rating,wheat [2]; [21],0
same,"Plant response rating, Rice",rice,0
same,"Plant response rating, Morningglory",morningglory [3]; [19],0
same,Morningglory plant response rating,morningglory [3]; [21],0
same,"Plant response rating, Pigweed",pigweed [4]; [19],0
same,Pigweed plant response rating,pigweed [4]; [21],0
same,"Plant response rating, Barnyardgrass",barnyardgrass [5],0
same,"Plant response rating, Pigweed",pigweed [6]; [19],20
same,"Plant response rating, Pigweed",pigweed [6]; [22],50
same,"Plant response rating, Ducksalad",Heteranthera limosa,0
same,"Plant response rating, Velvetleaf",velvetleaf [7]; [19],20
same,"Plant response rating, Velvetleaf",velvetleaf [7]; [22],40
same,"Plant response rating, Corn",corn [8]; [19],0
same,"Plant response rating, Corn",corn [8]; [22],0
same,"Plant response rating, Barnyardgrass",barnyardgrass [9]; [19],0
same,"Plant response rating, Barnyardgrass",barnyardgrass [9]; [22],0
same,"Plant response rating, Wheat",wheat [10]; [19],0
same,"Plant response rating, Wheat",wheat [10]; [22],0
same,"Plant response rating, Corn",corn [11]; [19],0
same,Corn plant response rating,corn [11]; [21],0
same,"Plant response rating, Velvetleaf",velvetleaf [12]; [19],0
same,Velvetleaf plant response rating,velvetleaf [12]; [21],40
same,"Plant response rating, Crabgrass, Large",large (Lg) crabgrass [13]; [19],10
same,"Plant response rating, Crabgrass, Large",large (Lg) crabgrass [13]; [22],40
same,"Plant response rating, Morningglory",morningglory [14]; [19],0
same,"Plant response rating, Morningglory",morningglory [14]; [22],0
same,"Plant response rating, Sedge, Umbrella","sedge, umbrella",0
same,"Plant response rating, Crabgrass, Large",large (Lg) crabgrass [15]; [19],10
same,"Crabgrass, Large plant response rating",large (Lg) crabgrass [15]; [21],40
same,"Plant response rating, Barnyardgrass",barnyardgrass [16]; [19],0
same,Barnyardgrass plant response rating,barnyardgrass [16]; [21],20
same,"Plant response rating, Foxtail, Giant",giant foxtail [17]; [19],20
same,"Plant response rating, Foxtail, Giant",giant foxtail [17]; [22],30
